Measured values reported in patent US20120202840A1, “Use of Flubendazole and Vinca Alkaloids for Treatment of Hematological Diseases” (priority 2009, published 2012).
“Also recorded” adds a separate entry of the source. Where two headings read alike, the source gives them in different places.

Legend:
OPM2 cells = system: OPM2 cells
Experimental: (C) Sub-lethally irradiated SCID mice were injected subcutaneously with OPM2 cells (n=20; 10 per group). […] Tumor volume and body weight was measured over time. After 17 days, mice were sacrificed and tumors were excised, measured and weighted.
Sub-lethally irradiated SCID mice were injected subcutaneously in the left flank with leukemia OCI-AML2 (2.0×10^6) or myeloma OPM2 (1.0×10^7) cells. Mice were then randomly assigned to receive flubendazole (in 0.9% NaCl and 0.01% tween-80) or vehicle control (0.9% NaCl and 0.01% tween-80) intraperitoneally. […] Tumor volumes (tumor length×width^2×0.5236) were monitored daily using calipers. At the end of the experiment (16-18 days), mice were sacrificed, tumors excised and tumor volume and weight measured. All animal studies were carried out according to the regulations of the Canadian Council on Animal Care and with the approval of the local ethics review board.

OCI-AML2 cells = assay: Radioactive glucose uptake assay; format: cell-based; conditions: concentrations up to 4.0 μM, 16 hours
Experimental: (A) OCI-AML2 cells were incubated with increasing concentrations of flubendazole for 16 h and the uptake of 3H-deoxy-D-glucose was measured as in the materials and methods. Data represent the mean±SD glucose uptake. A representative experiment is shown.
The effect of flubendazole on the uptake of 2-deoxy-D-glucose in OCI-AML2 cells was performed using a radioactive glucose uptake assay as described by Wood et al^27. […] Uptake of 2-deoxy-D-glucose was initiated by the addition of 10 μM 2-deoxy-D-glucose and 1 μCi/mL 2-[^3H]deoxy-D-glucose in the HEPES-buffered saline solution at room temperature. After 5 min of incubation, 2-deoxy-D-glucose uptake was terminated by rinsing the cells three times with a 25 mM ice-cold glucose solution, followed by cell disruption with 0.05 N NaOH. Protein concentration was measured by the modified Bradford protein assay and cell-associated radioactivity was determined by scintillation counting. The mean counts per minute are expressed as picomoles/min/mg protein.

U937 leukemia cells = assay: Analysis of gene expression (Affymetrix arrays); format: cell-based; conditions: 1.0 μM, 4 hours
Experimental: Briefly, total RNA was harvested from treated and untreated cells and hybridized to Affymetrix HG U133 Plus 2.0 gene expression oligonucleotide arrays (Affymetrix, Santa Clara, Calif., USA). Labeling and hybridization to arrays were performed by The Centre for Applied Genomics (Medical and Related Sciences Centre, Toronto, ON, Canada). Microarray data were analyzed using GeneSpring GX v10.0 (Agilent), and genes deregulated >4-fold after 4 hours flubendazole treatment were identified. Pathways and gene ontology analyses were carried out using Ingenuity Pathways Analysis (www.ingenuity.com) and the Database for Annotation, Visualization and Integrated Discovery (DAVID; http://david.abcc.ncifcrf.gov). Connectivity Map analysis, which compares the changes in gene expression signature following flubendazole treatment with gene expression signatures following treatment with other common pharmacological agents, was also performed (http://www.broadinstitute.org/cmap).

bovine tubulin [1] = assay: Tubulin polymerization assay; format: biochemical; conditions: cell-free, bovine tubulin 1.8 mg/ml; flubendazole 100 μM
Experimental: A representative figure is shown.
Polymerization of bovine tubulin was measured according to Beyer et al^28. Briefly, bovine tubulin (1.8 mg/ml; Cytoskeleton; Denver, USA) was added to ice cold polymerization buffer (PEM; 80 mM PIPES, 0.5 mM EGTA, 2 mM MgCl2, 10% glycerol and 1 mM GTP) and centrifuged at top speed in a microcentrifuge for 5 min at 4° C. […] Following addition of tubulin, the plate was immediately placed in the spectrophotometer, which was maintained at 37° C., and the absorbance measured every 3 minutes for 2.5 h at 340 nm.

bovine tubulin [2] = assay: Site of binding to tubulin (colchicine-tubulin fluorescence); conditions: tubulin 5.0 μM, 100 μM drug 30 min, then colchicine 10 μM 60 min
Experimental: (C) Tubulin (5.0 μM) was incubated for 30 min with 100 μM vinblastine, 100 μM flubendazole, or buffer control. […] A representative figure is shown.
The site of flubendazole binding was determined similar to Gupta et al^19. Bovine tubulin (5.0 μM) was incubated with 100 μM flubendazole, 100 μM vinblastine or buffer control for 30 min at 37° C.

PPC-1 cells = assay: Microtubules in cultured cells (confocal microscopy); format: cell-based; conditions: PPC-1, 1.0 μM, 24 hours
Experimental: (D) PPC-1 cells were treated with 1.0 μM flubendazole (i) or control (ii) for 24 h and stained with DAPI and an anti α-tubulin AlexaFluor 488 nm antibody. Images were captured using an Olympus Fluorview confocal microscope at room temperature. Representative confocal micrographs at 40× are shown.
PPC-1 cells (5.0×10^3) were seeded on glass cover slips in a 6 well plate overnight at 37° C. and then treated with 1.0 μM flubendazole or vehicle control for 24 h. Cells were then fixed in 3.7% paraformeldehyde for 15 min at 37° C., permeabilized using 0.1% triton X-100 for 4 min at room temperature, and incubated at 4° C. overnight in a humidified chamber with a blocking solution (0.5% BSA). Cells were then incubated with a primary mouse anti α-tubulin antibody (clone DMIA, 1:300, in 0.5% BSA; Sigma) for 1 hour at 37° C., washed 3 times in PBS and subsequently incubated with a goat anti-mouse IgG, AlexaFluor 488 secondary antibody (1:500, Sigma) for 1 hour in the dark at room temperature. Cells were then washed, stained with 4′,6-diamidino-2-phenylindole (DAPI) and mounted on a microscope slide using Dakocytomation fluorescent mounting media (Dakocytamation, Carpinteria, Calif.). Slides were imaged using the Olympus Fluoview FV1000 Laser Scanning Confocal Microscope (Olympus America Inc., Center Valley, Pa.) at room temperature at 40×.

[3] = chickens, up to 180 mg/kg daily for 7 days; cited from earlier work
[4] = cited from earlier work
[5] = healthy volunteers, 1000 mg single oral dose, three days after administration; cited from earlier work
[6] = rats, up to 150 mg/kg/day for 3 months; cited from earlier work
[7] = OPM2 xenograft, 50 mg/kg daily intraperitoneally for 17 days, vs vehicle, p<0.05

COC(=O)Nc1nc2ccc(C(=O)c3ccc(F)cc3)cc2[nH]1 [flubendazole]
tumor growth (OPM2 cells; [7]): significantly delayed tumor growth
tumor weights (OPM2 cells; [7]): reduced tumor weights
weight loss, behavioral changes or gross organ toxicity (OPM2 cells; mouse, in vivo): no evidence of weight loss, behavioral changes or gross organ toxicity
uptake of 3H-deoxy-D-glucose (OCI-AML2 cells): did not alter glucose uptake
number of genes deregulated >4 fold (U937 leukemia cells): 196
effect on tubulin polymerization / microtubule formation (bovine tubulin [1]): inhibited tubulin polymerization
colchicine fluorescence (colchicine binding to tubulin) (bovine tubulin [2]): decreased colchicine fluorescence
microtubule architecture in intact cells (PPC-1 cells): disrupts the microtubule architecture
toxicity [3]: developed anemia and reduction of red cells in the spleen
toxicity ([4]; healthy volunteers, single oral doses up to 2000 mg): without toxicity
toxicity ([4]; humans, 40-50 mg/kg/day for 10 days, neurocysticercosis): no toxicity from the drug was reported
adverse effects ([4]; patients, up to 50 mg/kg orally daily for up to 24 months): without serious adverse effects; also recorded: without adverse effect
unchanged drug detected in the feces [5]: 77%
unchanged drug detected in the urine [5]: less than 0.1%
toxicity [6]: No toxicity was noted
